# Experimental data: patent US11187660B2, “Fluorescent probes for monitoring voltage by photo-induced electron transfer” (The Regents of the University of California, priority 2011, dated 2021)
# Tested on: leech Retzius cells
# Assay: Capacitative loading in leech Retzius cells
# Assay type: cell-based, Hirudo medicinalis
# Details: hyperpolarizing current injection, dye at three times the working concentration
# From the text: We injected hyperpolarizing current into the Retzius cells of leech ganglia preparations and compared the time constants for these voltage steps in ganglia under different dye loading conditions. The ganglia were stained with dye at three times the working concentration [either VF2.1.Cl or diSBA-C4-(3) (14)] and compared with unloaded cells.
# Isolated midbody ganglia (Ganglia 8-16) were dissected from Hirudo medicinalis and the ventral side was desheathed using standard procedures. The voltage sensitive dye was combined with HEPES saline down to the desired concentration (100-300 nM), and 1.5 μL of a 20% (w/v) solution of Pluronic F-127 in DMSO. The dye was then continuously pumped over the ganglion to help with penetration into the cell membranes for 20-30 minutes. […]
# Electrophysiological measurements were made with paired electrode recordings with resistances in the range of 20-40 MΩm. Electrode 1 acted as the recording electrode, which constantly monitored membrane potential, and electrode 2 acted as the current injecting electrode. […] The capacitance C was calculated with the formula C=tau*I/ΔV, where I=1 nA and the hyperpolarization ΔV was 15-18 mV. Tau was measured two ways: 1) the time required for the normalized curve to reach (1-1/e); 2) the time constant of the best fit exponential or sum of exponentials. […] Spontaneous Retzius cell activity was measured with a single electrode.
smiles,measurement,value
"CN(C)c1ccc(/C=C/c2ccc(/C=C/c3ccc(-c4c5cc(Cl)c(=O)cc-5oc5cc(O)c(Cl)cc45)c(S(=O)(=O)O)c3)cc2)cc1 [VF2.1.Cl, 5-(4-(4-(dimethyllamino)styryl)styryl)-2-(2,7-dichloro-6-hydroxy-3-oxo-3H-xanthen-9-yl)benzenesulfonic acid]",capacitative load on the membrane,no difference from control cells
